In this test the target is T1, GPR119 receptor (Homo sapiens, UniProt Q8TDV5).
T1 construct: expressed in transfected cells
T1 sequence (Q8TDV5 1-335): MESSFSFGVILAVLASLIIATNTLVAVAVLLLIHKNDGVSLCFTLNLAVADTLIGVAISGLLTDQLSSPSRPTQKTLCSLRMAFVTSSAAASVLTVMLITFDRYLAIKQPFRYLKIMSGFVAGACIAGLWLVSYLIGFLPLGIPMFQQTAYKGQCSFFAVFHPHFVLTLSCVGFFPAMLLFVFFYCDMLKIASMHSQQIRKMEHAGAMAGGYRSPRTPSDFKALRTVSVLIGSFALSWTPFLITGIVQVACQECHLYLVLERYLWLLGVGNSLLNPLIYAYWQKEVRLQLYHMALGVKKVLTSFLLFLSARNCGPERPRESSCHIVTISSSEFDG
Put plainly: cAMP assay in cells transfected with the GPR119 receptor (human). The format is cell-based. The following applies: increase in intracellular cAMP, read-out: h-cAMP EC50. The procedure: The activity of these compounds may be assayed in cells transfected the GPR119 receptor (human, mouse, rat or monkey). Incubation with the above compounds results in an increase in intracellular cAMP, from which an EC50 value may be calculated. Ki values for compounds at this receptor can be determined by employing a radio-labeled agonist. In vivo activity can be determined by conducting an oral glucose-tolerance test in an appropriate species, such as mouse.

Usually EC50 stands for the concentration at which the effect is half-maximal. For `CC(C)(C)OC(=O)N1CC2COCC(C1)C2Oc1ncnc2c(-c3ccc(C#N)cc3F)csc12` (stereo not shown) [Example 1], the EC50 came out at 8 nM.

Consider `CC(C)(C)OC(=O)N1CC2COCC(C1)C2Oc1ncnc2c(-c3ccc(S(C)(=O)=O)cc3F)csc12` (stereo not shown) [Example 2], for which the EC50 was determined as 62 nM.

In the case of `CC1(OC(=O)N2CC3COCC(C2)C3Oc2ncnc3c(-c4ccc(C#N)cc4F)csc23)CC1` (stereo not shown) [Example 3], the EC50 stood at 9 nM.

With `CS(=O)(=O)c1ccc(-c2csc3c(OC4C5COCC4CN(c4ncc(Cl)cn4)C5)ncnc23)c(F)c1` (stereo not shown) [Example 4], the EC50 worked out at 23 nM.

With `CC(C)(C)OC(=O)N1CC2COCC(C1)C2Oc1ncnc2c(-c3ccc(F)cc3F)csc12` (stereo not shown) [Example 5], the EC50 was 18 nM.

With `CC1(OC(=O)N2CC3COCC(C2)C3Oc2ncnc3c(-c4ccc(F)cc4F)csc23)CC1` (stereo not shown) [Example 6], the EC50 is 16 nM.

For `CS(=O)(=O)c1ccc(-c2csc3c(OC4C5COCC4CN(c4ncc(F)cn4)C5)ncnc23)c(F)c1` (stereo not shown) [Example 7], the EC50 came to 47 nM.

On to `CCCc1cnc(N2CC3COCC(C2)C3Oc2ncnc3c(-c4ccc(S(C)(=O)=O)cc4F)csc23)nc1` (stereo not shown) [Example 8], for which the EC50 was 150 nM.

Take `CC(C)(C)OC(=O)N1CC2COCC(C1)C2Oc1ncnc2c(-c3ccc(C#N)cc3Cl)csc12` (stereo not shown) [Example 9]: the EC50 amounted to 47 nM.

For `CC1(OC(=O)N2CC3COCC(C2)C3Oc2ncnc3c(-c4ccc(C#N)cc4Cl)csc23)CC1` (stereo not shown) [Example 10], the EC50 was 24 nM.

Regarding `N#Cc1ccc(-c2csc3c(OC4C5COCC4CN(c4ncc(Cl)cn4)C5)ncnc23)c(Cl)c1` (stereo not shown) [Example 11], the EC50 came out at 18 nM.

With `CC1(OC(=O)N2CC3COCC(C2)C3Oc2ncnc3c(-c4ccc(C(=O)C5CC5)cc4Cl)csc23)CC1` (stereo not shown) [Example 12], the EC50 is 86 nM.

With `CC1(OC(=O)N2CC3COCC(C2)C3Oc2ncnc3c(-c4ccc(C#N)cc4F)c[nH]c23)CC1` (stereo not shown) [Example 14], the EC50 turned out to be 298 nM.

As to `CS(=O)(=O)c1ccc(-c2c[nH]c3c(OC4C5COCC4CN(c4ncc(Cl)cn4)C5)ncnc23)c(F)c1` (stereo not shown) [Example 16], the EC50 was found to be 247 nM.

Consider `Cn1cc(-c2ccc(C#N)cc2F)c2ncnc(OC3C4COCC3CN(C(=O)OC3(C)CC3)C4)c21` (stereo not shown) [Example 17], for which the EC50 is 13 nM.

For the compound `Cn1cc(-c2ccc(S(C)(=O)=O)cc2F)c2ncnc(OC3C4COCC3CN(c3ncc(Cl)cn3)C4)c21` (stereo not shown) [Example 21], the EC50 stood at 5.3 nM.

On to `CC1(OC(=O)N2CC3COCC(C2)C3Oc2ncnc3c(-c4ccc(Cl)cc4F)csc23)CC1` (stereo not shown) [Example 22], for which the EC50 turned out to be 2 nM.

For `COc1ccc(-c2csc3c(OC4C5COCC4CN(C(=O)OC4(C)CC4)C5)ncnc23)c(F)c1` (stereo not shown) [Example 23], the EC50 is 1.1 nM.

With `CC1(OC(=O)N2CC3COCC(C2)C3Oc2ncnc3c(-c4ccc(F)cc4C#N)csc23)CC1` (stereo not shown) [Example 24], the EC50 came to 1.2 nM.

As to `COC(=O)c1ccc(-c2csc3c(OC4C5COCC4CN(C(=O)OC4(C)CC4)C5)ncnc23)c(F)c1` (stereo not shown) [Example 25], the EC50 amounted to 0.46 nM.

On to `COc1ccc(-c2csc3c(OC4C5COCC4CN(C(=O)OC(C)C)C5)ncnc23)c(F)c1` (stereo not shown) [Example 27], for which the EC50 was determined as 0.76 nM.

Consider `COc1ccc(-c2csc3c(OC4C5COCC4CN(c4ncc(Cl)cn4)C5)ncnc23)c(F)c1` (stereo not shown) [Example 28], for which the EC50 was found to be 2.1 nM.

With `CC1(OC(=O)N2CC3COCC(C2)C3Oc2ncnc3c(-c4ccc(CO)cc4F)csc23)CC1` (stereo not shown) [Example 29], the 50% effective concentration (EC50) was found to be 0.48 nM.

For `COCc1ccc(-c2csc3c(OC4C5COCC4CN(C(=O)OC4(C)CC4)C5)ncnc23)c(F)c1` (stereo not shown) [Example 30], the EC50 was found to be 0.74 nM.

As to `Cn1cc(-c2ccc(F)cc2F)c2ncnc(OC3C4COCC3CN(C(=O)OC3(C)CC3)C4)c21` (stereo not shown) [Example 31], the EC50 worked out at 8.4 nM.

Consider `COc1ccc(-c2cn(C)c3c(OC4C5COCC4CN(C(=O)OC4(C)CC4)C5)ncnc23)c(F)c1` (stereo not shown) [Example 32], for which the EC50 was determined as 5.7 nM.

Regarding `CS(=O)(=O)c1ccc(-c2csc3c(OC4C5COCC4CN(CC(F)(F)C(F)(F)F)C5)ncnc23)c(F)c1` (stereo not shown) [Example 33], the EC50 was found to be 1 nM.

As to `Fc1ccc(-c2csc3c(OC4C5COCC4CN(CC(F)(F)C(F)(F)F)C5)ncnc23)c(F)c1` (stereo not shown) [Example 34], the EC50 stood at 72 nM.

For `COc1ccc(-c2csc3c(OC4C5COCC4CN(CC(F)(F)C(F)(F)F)C5)ncnc23)c(F)c1` (stereo not shown) [Example 35], the EC50 stood at 45 nM.

Turning to `N#Cc1ccc(-c2csc3c(OC4C5COCC4CN(CC(F)(F)C(F)(F)F)C5)ncnc23)c(Cl)c1` (stereo not shown) [Example 36], the EC50 turned out to be 35 nM.

Turning to `N#Cc1ccc(-c2csc3c(OC4C5COCC4CN(CC(F)(F)C(F)(F)F)C5)ncnc23)c(F)c1` (stereo not shown) [Example 37], the EC50 came out at 1.6 nM.

For `COc1ccc(-c2csc3c(OC4C5COCC4CN(C(=O)OC4(C)CC4)C5)ncnc23)c(Cl)c1` (stereo not shown) [Example 38], the EC50 is 0.44 nM.

In the case of `Cc1ccc(-c2csc3c(OC4C5COCC4CN(C(=O)OC4(C)CC4)C5)ncnc23)c(F)c1` (stereo not shown) [Example 39], the EC50 was 0.36 nM.

`CC1(OC(=O)N2CC3COCC(C2)C3Oc2ncnc3c(-c4ncc(F)cc4F)csc23)CC1` (stereo not shown) [Example 40]: the EC50 came out at 0.51 nM.

Take `CC1(OC(=O)N2CC3COCC(C2)C3Oc2ncnc3c(-c4ccc(S(C)(=O)=O)cc4F)csc23)CC1` (stereo not shown) [Example 41]: the EC50 was 0.47 nM.

Consider `Cn1cc(-c2ccc(S(C)(=O)=O)cc2F)c2ncnc(OC3C4COCC3CN(C(=O)OC3(C)CC3)C4)c21` (stereo not shown) [Example 42], for which the EC50 was 1 nM.

Regarding `CCS(=O)(=O)c1ccc(-c2csc3c(OC4C5COCC4CN(C(=O)OC4(C)CC4)C5)ncnc23)cc1` (stereo not shown) [Example 43], the EC50 turned out to be 0.38 nM.

As to `CC1(OC(=O)N2CC3COCC(C2)C3Oc2ncnc3c(-c4ccc(O)cc4F)csc23)CC1` (stereo not shown) [Example 44], the EC50 turned out to be 1 nM.

Turning to `CC1(OC(=O)N2CC3COCC(C2)C3Oc2ncnc3c(-c4ccc(F)cc4Cl)csc23)CC1` (stereo not shown) [Example 45], the EC50 worked out at 0.1 nM.

For the compound `COC(=O)COc1ccc(-c2csc3c(OC4C5COCC4CN(C(=O)OC4(C)CC4)C5)ncnc23)c(F)c1` (stereo not shown) [Example 46], the EC50 was 2.5 nM.

In the case of `CC1(OC(=O)N2CC3COCC(C2)C3Oc2ncnc3c(-c4ccc(C#N)cc4)csc23)CC1` (stereo not shown) [Example 47], the concentration for a half-maximal effect (EC50) was 1 nM.

As for `CC1(OC(=O)N2CC3COCC(C2)C3Oc2ncnc3c(-c4ccc(F)c(CO)c4F)csc23)CC1` (stereo not shown) [Example 48], the EC50 was determined as 1.4 nM.

On to `Cc1c(F)ccc(-c2csc3c(OC4C5COCC4CN(C(=O)OC4(C)CC4)C5)ncnc23)c1F` (stereo not shown) [Example 49], for which the 50% effective concentration (EC50) was 1.7 nM.

In the case of `CC1(OC(=O)N2CC3COCC(C2)C3Oc2ncnc3c(-c4ccc(S(C)(=O)=O)cc4)csc23)CC1` (stereo not shown) [Example 50], the 50% effective concentration (EC50) was 2.2 nM.

In the case of `CC1(OC(=O)N2CC3COCC(C2)C3Oc2ncnc3c(-c4ccc(OCCO)cc4F)csc23)CC1` (stereo not shown) [Example 51], the EC50 is 0.65 nM.

In the case of `CC(C)(O)COc1ccc(-c2csc3c(OC4C5COCC4CN(C(=O)OC4(C)CC4)C5)ncnc23)c(F)c1` (stereo not shown) [Example 52], the EC50 was determined as 0.5 nM.

Source of the values: patent US20130096141A1, “BICYCLIC HETEROCYCLE DERIVATIVES AND METHODS OF USE THEREOF” (priority 2010, published 2013).
